Reference: patent publication US20250092065A1, “2-(INDAZOL-5-YL)-6-(PIPERIDIN-4-YL)-1,7-NAPHTHYRIDINE DERIVATIVES AND RELATED COMPOUNDS AS MODULATORS FOR SPLICING NUCLEIC ACIDS AND FOR THE TREATMENT OF PROLIFERATIVE DISEASES” (REMIX THERAPEUTICS INC., priority 2022, published 2025)
Read-outs that look alike come from different tables or passages of the source.

Columns and labels:
Type in all cases: cell-based, human
HTT mRNA = assay: RT-qPCR splicing assay, HTT mRNA canonical (CJ) and alternative (AJ) junction; details: Homo sapiens; for AC50: HTT alternative junction mRNA, read-out: HTT AJ (increase in AJ mRNA, AC50)
Outline: (§1)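 Both isoforms, CJ and AJ, read by qPCR from crude lysates of treated A673 or K562 cells; 24 h, 37 °C, maximum 10 uM. Normalization: housekeeper ΔCt, then DMSO ΔΔCt.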

MYB mRNA = assay: RT-qPCR splicing assay, MYB mRNA canonical (CJ) and alternative (AJ) junction; details: Homo sapiens; for AC50: MYB alternative junction mRNA, read-out: MYB AJ (increase in AJ mRNA, AC50)
Outline: as §1

HTT = assay: HiBiT protein abundance assay, HTT (K562 HiBiT knock-in); details: HiBiT knock-in K562 cells, 24 hours, top dose 10 μM
Outline: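 Luminescence readout: Nano-Glo HiBiT lytic detection after 24 h compound exposure of K562 HiBiT knock-in cells, 10000 cells/well. Dosing 10-pt, 3-fold, top 10 μM final. % response vs untreated parental K562 and DMSO controls; 4PL fit, IC50 = concentration giving 50% protein abundance.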

[1] = HTT canonical junction mRNA, RT-qPCR, read-out: HTT CJ (decrease in CJ mRNA levels, IC50)
[2] = canonical junction qPCR panel, Table 4, read-out: HTT IC50 (decrease in CJ mRNA levels)
[3] = MYB canonical junction mRNA, RT-qPCR, read-out: MYB CJ (decrease in CJ mRNA levels, IC50)
[4] = canonical junction qPCR panel, Table 4, read-out: MYB IC50 (decrease in CJ mRNA levels)

SMILES	IC50 (HTT mRNA; [1])	IC50 (HTT mRNA; [2])	IC50 (MYB mRNA; [3])	IC50 (MYB mRNA; [4])	IC50 (HTT)	AC50 (HTT mRNA; RT-qPCR)	AC50 (MYB mRNA; RT-qPCR)
CC(C)(C)NC1CCN(c2ccc3nc(-c4cc5oc(CO)nc5cc4O)ccc3n2)C1 (stereo not shown) [Compound 336, 6-{6-[3-(tert-butylamino)pyrrolidin-1-yl]-1,5-naphthyridin-2-yl}-2-(hydroxymethyl)-1,3-benzoxazol-5-ol]	< 100 nM	< 100 nM	100 to 1000 nM	100 to 1000 nM	< 100 nM	100 to 1000 nM	100 to 1000 nM
Cc1nc2cc(O)c(-c3ccc4nc(N5CCC(NC(C)(C)C)C5)ccc4n3)cc2n1C (stereo not shown) [Compound 339, 6-{6-[3-(tert-butylamino)pyrrolidin-1-yl]-1,5-naphthyridin-2-yl}-1,2-dimethyl-1,3-benzodiazol-5-ol]	100 to 1000 nM	100 to 1000 nM	100 to 1000 nM	100 to 1000 nM	100 to 1000 nM	100 to 1000 nM	100 to 1000 nM
Cc1cc2nc(-c3ccc4nc(N5CCC(NC(C)(C)C)C5)ccc4n3)cn2c(C)n1 (stereo not shown) [Compound 344, N-tert-butyl-1-(6-{5,7-dimethylimidazo[1,2-c]pyrimidin-2-yl}-1,5-naphthyridin-2-yl)pyrrolidin-3-amine]	1000 to 10000 nM	1000 to 10000 nM	1000 to 10000 nM	1000 to 10000 nM	1000 to 10000 nM	1000 to 10000 nM	1000 to 10000 nM
CCc1nc2cc(O)c(-c3ccc4nc(N5CCC(NC(C)(C)C)C5)ccc4n3)cc2o1 (stereo not shown) [Compound 346, 6-{6-[3-(tert-butylamino)pyrrolidin-1-yl]-1,5-naphthyridin-2-yl}-2-ethyl-1,3-benzoxazol-5-ol]	1000 to 10000 nM	1000 to 10000 nM	1000 to 10000 nM	1000 to 10000 nM	1000 to 10000 nM	1000 to 10000 nM	1000 to 10000 nM
Cc1nc2cc(O)c(-c3ccc4nc(N5CC[C@H](N[C@H]6C[C@H](F)C6)C5)ccc4n3)cc2o1 [Compound 350, 2-methyl-6-{6-[(3S)-3-{[(1r,3r)-3-fluorocyclobutyl]amino}pyrrolidin-1-yl]-1,5-naphthyridin-2-yl}-1,3-benzoxazol-5-ol]	< 100 nM	< 100 nM	100 to 1000 nM	100 to 1000 nM	< 100 nM	< 100 nM	100 to 1000 nM

Now from value to compound, other results behind:

IC50 (HTT mRNA; [1])	IC50 (HTT mRNA; [2])	IC50 (MYB mRNA; [3])	IC50 (MYB mRNA; [4])	IC50 (HTT)	SMILES	AC50 (HTT mRNA; RT-qPCR)	AC50 (MYB mRNA; RT-qPCR)
100 to 1000 nM	100 to 1000 nM	< 100 nM	< 100 nM	100 to 1000 nM	CNC1CCN(c2ccc3nc(-c4cc5cn(C)nc5c(C)c4O)ncc3n2)C1 (stereo not shown) [Compound 337, 2,7-dimethyl-5-{6-[3-(methylamino)pyrrolidin-1-yl]pyrido[3,2-d]pyrimidin-2-yl}indazol-6-ol]	100 to 1000 nM	< 100 nM
100 to 1000 nM	100 to 1000 nM	< 100 nM	< 100 nM	100 to 1000 nM	Cc1c(O)c(-c2ncc3nc(N4CCNCC4)ccc3n2)cc2cn(C)nc12 [Compound 338, 2,7-dimethyl-5-[6-(piperazin-1-yl)pyrido[3,2-d]pyrimidin-2-yl]indazol-6-ol]	1000 to 10000 nM	100 to 1000 nM
100 to 1000 nM	100 to 1000 nM	100 to 1000 nM	100 to 1000 nM	100 to 1000 nM	Cc1nc2cc(-c3ccc4nc(N5CCC(NC(C)(C)C)C5)ccc4n3)c(O)cc2n1C (stereo not shown) [Compound 340, 6-{6-[3-(tert-butylamino)pyrrolidin-1-yl]-1,5-naphthyridin-2-yl}-2,3-dimethyl-1,3-benzodiazol-5-ol]	100 to 1000 nM	100 to 1000 nM
100 to 1000 nM	100 to 1000 nM	100 to 1000 nM	100 to 1000 nM	100 to 1000 nM	Cn1cc2cc(-c3ccc4nc(N5CCC(NC67CC(O)(C6)C7)C5)ccc4n3)c(O)cc2n1 (stereo not shown) [Compound 341, 5-{6-[3-({3-hydroxybicyclo[1.1.1]pentan-1-yl}amino)pyrrolidin-1-yl]-1,5-naphthyridin-2-yl}-2-methylindazol-6-ol]	100 to 1000 nM	100 to 1000 nM
100 to 1000 nM	100 to 1000 nM	100 to 1000 nM	100 to 1000 nM	100 to 1000 nM	Cc1c(O)c(-c2ncc3nc(N4CCC5(CCN5)C4)ccc3n2)cc2cn(C)nc12 (stereo not shown) [Compound 342, 5-(6-{1,6-diazaspiro[3.4]octan-6-yl}pyrido[3,2-d]pyrimidin-2-yl)-2,7-dimethylindazol-6-ol]	100 to 1000 nM	100 to 1000 nM
